The source made the active and inactive calls. The rule behind the calls is not given here.
system: Mus musculus; assay: Anticarcinogenic activity in A/J mouse assessed as inhibition of Benzo(a)pyrene-induced tumorigenesis at 0.4 g/kg in diet for 21 days by mouse lung tumor inhibition study; type: functional, organism-based

SMILES | Activity
CCCCCCCCOc1c(OC(=O)CCCCC)cc2c(=O)oc3c(OCCCCCCCC)c(OC(=O)CCCCC)cc4c(=O)oc1c2c34 | Active
O=c1oc2c(O)c(O)cc3c(=O)oc4c(O)c(O)cc1c4c23 | Active
CC(=O)OC[C@H]1O[C@@H](Oc2c(OC(C)=O)cc3c(=O)oc4c(O[C@@H]5O[C@H](COC(C)=O)[C@@H](OC(C)=O)[C@H](OC(C)=O)[C@H]5OC(C)=O)c(OC(C)=O)cc5c(=O)oc2c3c45)[C@H](OC(C)=O)[C@@H](OC(C)=O)[C@@H]1OC(C)=O | Active

— ChEMBL document CHEMBL1149746, “Synthesis of ellagic acid O-alkyl derivatives and isolation of ellagic acid as a tetrahexanoyl derivative from Fragaria ananassa” (J Nat Prod, 1992)
